Measured values: US20220402900A1, “1,2,4-OXADIAZOL-5-ONE DERIVATIVES FOR THE TREATMENT OF CANCER” (Basilea Pharmaceutica International AG, priority 2019, published 2022)

How the values were obtained:
[1] = target: T1, human TEAD2 (amino acids 217-447) (Homo sapiens, UniProt Q15562); assay: Thermal shift assay (TSA); format: binding; details: 3 μM recombinant TEAD2, compound 7 μM, shift vs DMSO control
T1 construct: human TEAD2 (amino acids 217-447); His-tag (N); purchased Proteros biostructures PR-0365; host or cells: E. coli
Procedure: The thermal shift assay (TSA) was utilized to characterize target engagement in vitro based on ligand-dependent thermal stabilization of the protein. N-terminally His-tagged human TEAD2 (amino acids 217-447) expressed and purified from E. coli was purchased from Proteros biostructures (cat no. PR-0365). The melting reactions were performed in white, 96 well qPCR plates (Roche Diagnostics, cat. no. 04 729 692 001) in 20 mM HEPES pH 7, 100 mM NaCl in the presence of 4×SYPRO orange (Sigma, cat. no. S5692). Each well contained 3 μM recombinant TEAD2 and either DMSO (control) or experimental compounds at a final concentration of 7 μM. The total volume was 20 μL and the final DMSO concentration was 1%. The plate was sealed and analyzed in a LightCycler 480 II (Roche Diagnostics) by continuously reading the fluorescence using the 465-580 nm filter set while heating from 25° C. to 95° C. using a linear gradient of 1° C./min. Melting temperatures were determined by numerical differentiation using the LightCycler Thermal Shift Analysis software (Roche Diagnostics). The shifts in melting temperature caused by experimental compounds compared to the control are expressed as ΔTm (Table 2).

[2] = system: TEAD reporter gene activity; assay: TEAD reporter gene assay (MCF7 TEAD reporter cell line); format: cell-based; details: Homo sapiens; TEAD luciferase reporter in MCF7 cells, 24 hours; read-out: IC50 TEAD RGA (converted)
From the text: A TEAD reporter cell line was purchased from BPS Bioscience (cat. no. 60618). It contains the firefly luciferase gene under control of TEAD responsive elements stably integrated into the human breast cancer MCF7 cells. In proliferating cells, a basal level of unphosphorylated YAP/TAZ resides in the nucleus and drives the TEAD-dependent expression of the luciferase reporter. The cells were cultivated as recommended by the supplier. Inhibition of TEAD reporter gene activity by experimental compounds was measured using white, clear-bottom, 96 well cell culture plates (Greiner Bio-One, cat. no. 655098). The cells were seeded at a density of 20,000 cells per well in 100 μL growth medium and the plates were incubated overnight at 37° C. with 5% CO2 prior to treatment. Experimental compounds were serially diluted in DMSO to 200× the desired final concentrations. 0.5 μL aliquots of DMSO or the test samples were then mixed into the wells and the cells were further incubated for 24 hours. Luminescence was then measured on a Synergy 4 reader (BioTek) using the ONE-Glo Luciferase Assay System (Promega, cat. no. E6120) according to the manufacturer's instructions. Relative inhibition values were calculated by normalizing the raw data using DMSO-treated cells (0% inhibition) and wells devoid of cells (100% inhibition). IC50 values were calculated by fitting concentration-response data to a sigmoidal 4-parameter logistic model.

T1 sequence (Q15562 217-447): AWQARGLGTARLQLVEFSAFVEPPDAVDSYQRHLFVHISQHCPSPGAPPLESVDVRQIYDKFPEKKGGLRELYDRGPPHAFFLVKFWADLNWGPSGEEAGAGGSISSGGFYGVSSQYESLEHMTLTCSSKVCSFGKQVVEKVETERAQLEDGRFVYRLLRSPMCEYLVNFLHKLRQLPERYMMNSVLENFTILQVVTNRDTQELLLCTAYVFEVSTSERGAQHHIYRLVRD

ΔTm at 7 µM [1] [°C] | IC50 [2] [nM] | SMILES
0.6 | 649 | O=c1[nH]c(-c2c(Nc3ccc(C(F)(F)F)cc3)ncc3c2CCC3)no1 [Example 49, 3-[3-[4-(trifluoromethyl)anilino]-6,7-dihydro-5H-cyclopenta[c]pyridin-4-yl]-4H-1,2,4-oxadiazol-5-one]
11.6 | 225 | O=c1[nH]c(-c2cc(Cl)cnc2Nc2ccc(C(F)(F)F)cc2)no1 [Example 44, 3-[5-chloro-2-[4-(trifluoromethyl)anilino]-3-pyridyl]-4H-1,2,4-oxadiazol-5-one]
5 | 499 | O=c1[nH]c(-c2nc(CO)cnc2Nc2ccc(C(F)(F)F)cc2)no1 [Example 6, 3-[6-(hydroxymethyl)-3-[4-(trifluoromethyl)anilino]pyrazin-2-yl]-4H-1,2,4-oxadiazol-5-one]
7.1 | 407 | CNc1cnc(Nc2ccc(C(F)(F)F)cc2)c(-c2noc(=O)[nH]2)c1 [Example 46, 3-[5-(methylamino)-2-[4-(trifluoromethyl)anilino]-3-pyridyl]-4H-1,2,4-oxadiazol-5-one]
6.1 | 557 | Cc1ccnc(Nc2ccc(C(F)(F)F)cc2)c1-c1noc(=O)[nH]1 [Example 28, 3-[4-methyl-2-[4-(trifluoromethyl)anilino]-3-pyridyl]-4H-1,2,4-oxadiazol-5-one]
5.3 | 711 | N#CC1(c2ccc(Nc3nccnc3-c3noc(=O)[nH]3)cc2)CCC1 [Example 42, 1-[4-[[3-(5-oxo-4H-1,2,4-oxadiazol-3-yl)pyrazin-2-yl]amino]phenyl]cyclobutanecarbonitrile]
3.5 | 149 | Nc1cnc(-c2noc(=O)[nH]2)c(Nc2ccc(C(F)(F)F)cc2)n1 [Example 36, 3-[5-amino-3-[4-(trifluoromethyl)anilino]pyrazin-2-yl]-4H-1,2,4-oxadiazol-5-one]
0.4 | 1540 | O=C(Nc1ccc(Nc2nccnc2-c2noc(=O)[nH]2)cc1)C1CCC1 [Example 27, N-[4-[[3-(5-oxo-4H-1,2,4-oxadiazol-3-yl)pyrazin-2-yl]amino]phenyl]cyclobutanecarboxamide]
5.1 | 179 | CC(C)Oc1ccnc(Nc2ccc(C(F)(F)F)cc2)c1-c1noc(=O)[nH]1 [Example 52, 3-[4-isopropoxy-2-[4-(trifluoromethyl)anilino]-3-pyridyl]-4H-1,2,4-oxadiazol-5-one]
3.4 | 1550 | CC1(COc2ccnc(Nc3ccc(C(F)(F)F)cc3)c2-c2noc(=O)[nH]2)CC1 [Example 63, 3-[4-[(1-methylcyclopropyl)methoxy]-2-[4-(trifluoromethyl)anilino]-3-pyridyl]-4H-1,2,4-oxadiazol-5-one]
9 | 2770 | O=c1[nH]c(-c2nccnc2Nc2ccc(OCC3CC3)cc2)no1 [Example 14, 3-[3-[4-(cyclopropylmethoxy)anilino]pyrazin-2-yl]-4H-1,2,4-oxadiazol-5-one]
3.6 | 127 | Nc1cc(Nc2nccnc2-c2noc(=O)[nH]2)ccc1C(F)(F)F [Example 33, 3-[3-[3-amino-4-(trifluoromethyl)anilino]pyrazin-2-yl]-4H-1,2,4-oxadiazol-5-one]
10.1 | 131 | O=c1[nH]c(-c2nccnc2Nc2ccc(C(F)(F)F)c(F)c2)no1 [Example 19, 3-[3-[3-fluoro-4-(trifluoromethyl)anilino]pyrazin-2-yl]-4H-1,2,4-oxadiazol-5-one]
5.3 | 4910 | O=c1[nH]c(-c2nccnc2Nc2ccc(Cl)c(C(F)(F)F)c2)no1 [Example 30, 3-[3-[4-chloro-3-(trifluoromethyl)anilino]pyrazin-2-yl]-4H-1,2,4-oxadiazol-5-one]
11.8 | 72 | CC(C)(C)c1ccc(Nc2nccnc2-c2noc(=O)[nH]2)cc1 [Example 15, 3-[3-(4-tert-butylanilino)pyrazin-2-yl]-4H-1,2,4-oxadiazol-5-one]
4.5 | 117 | COc1cnc(Nc2ccc(C(F)(F)F)cc2)c(-c2noc(=O)[nH]2)n1 [Example 5, 3-[6-methoxy-3-[4-(trifluoromethyl)anilino]pyrazin-2-yl]-4H-1,2,4-oxadiazol-5-one]
1.3 | 465 | O=c1[nH]c(-c2c(OCCN3CCOCC3)ccnc2Nc2ccc(C(F)(F)F)cc2)no1 [Example 60, 3-[4-(2-morpholinoethoxy)-2-[4-(trifluoromethyl)anilino]-3-pyridyl]-4H-1,2,4-oxadiazol-5-one]
12.6 | 39 | O=c1[nH]c(-c2ccccc2Nc2ccc(C(F)(F)F)cc2)no1 [Example 38, 3-[2-[4-(trifluoromethyl)anilino]phenyl]-4H-1,2,4-oxadiazol-5-one]
6.7 | 2750 | NC(=O)COc1ccnc(Nc2ccc(C(F)(F)F)cc2)c1-c1noc(=O)[nH]1 [Example 59, 2-[[3-(5-oxo-4H-1,2,4-oxadiazol-3-yl)-2-[4-(trifluoromethyl)anilino]-4-pyridyl]oxy]acetamide]
7.5 | 44 | COc1cnc(-c2noc(=O)[nH]2)c(Nc2ccc(C(F)(F)F)cc2)n1 [Example 12, 3-[5-methoxy-3-[4-(trifluoromethyl)anilino]pyrazin-2-yl]-4H-1,2,4-oxadiazol-5-one]
3.4 | 340 | O=c1[nH]c(-c2nccnc2Nc2ccc(C(F)(F)F)nc2)no1 [Example 24, 3-[3-[[6-(trifluoromethyl)-3-pyridyl]amino]pyrazin-2-yl]-4H-1,2,4-oxadiazol-5-one]
12.5 | 6570 | O=c1[nH]c(-c2nccnc2Nc2ccc(C3CCC3)cc2)no1 [Example 41, 3-[3-(4-cyclobutylanilino)pyrazin-2-yl]-4H-1,2,4-oxadiazol-5-one]
0.5 | 2840 | NCCc1cnc(Nc2ccc(C(F)(F)F)cc2)c(-c2noc(=O)[nH]2)n1 [Example 7, 3-[6-(2-aminoethyl)-3-[4-(trifluoromethyl)anilino]pyrazin-2-yl]-4H-1,2,4-oxadiazol-5-one]
9.2 | 52 | O=c1[nH]c(-c2ncccc2Nc2ccc(C(F)(F)F)cc2)no1 [Example 9, 3-[3-[4-(trifluoromethyl)anilino]-2-pyridyl]-4H-1,2,4-oxadiazol-5-one]
7.3 | 503 | O=c1[nH]c(-c2nccnc2Nc2ccc(-c3ccccc3)cc2)no1 [Example 29, 3-[3-(4-phenylanilino)pyrazin-2-yl]-4H-1,2,4-oxadiazol-5-one]
18 | 72 | Cc1cc(-c2noc(=O)[nH]2)c(Nc2ccc(C(F)(F)F)cc2)nc1C [Example 47, 3-[5,6-dimethyl-2-[4-(trifluoromethyl)anilino]-3-pyridyl]-4H-1,2,4-oxadiazol-5-one]

SMILES | ΔTm at 7 µM [1] [°C] | IC50 [2] [nM]
CC(C)(C)Oc1ccnc(Nc2ccc(C(F)(F)F)cc2)c1-c1noc(=O)[nH]1 [Example 53, 3-[4-tert-butoxy-2-[4-(trifluoromethyl)anilino]-3-pyridyl]-4H-1,2,4-oxadiazol-5-one] | 3.7 | 815
